# Measurements taken from PubChem BioAssay AID743087 (Broad Institute, 2013).
# Activity calls are given as the source filed them.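 Rule for the calls: active = IC50 below 100 nM in HeLa cells, the median call across repeat tests; inactive = IC50 above 100 nM in HeLa cells.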
# Test system: not listed separately
# Test: HeLa cell killing, TP53 mutant line, dose response, CellTiter-Glo luminescence, dry powder (AID 743087)
# Conditions: HeLa viability, CellTiter-Glo luminescence, 48 h
row,SMILES,outcome
1,CCN(CC)c1ccc(-c2nc(C(C)C)no2)cc1[N+](=O)[O-],inactive

# Test system: HeLa viability, CellTiter-Glo luminescence, 48 h
# Test: as above
# Conditions: not given
row,SMILES,IC50
1,C/C=C/c1ccc(C2=NNC(=O)C[C@H]2C)cc1,8.73 nM
2,Cc1cc(=O)[nH]nc1-c1ccc(N)cc1,> 1000 nM (inactive)
3,C[C@@H]1CC(=O)NN=C1c1ccc(F)c(F)c1,22 nM
4,C[C@@H]1CC(=O)NN=C1c1ccc(F)cc1 (racemic),360 nM (inactive)
5,CCN(CC)c1ccc(C2=NNC(=O)CC2C)cc1N (configuration not stated),232 nM (inactive)
6,C[C@@H]1CC(=O)NN=C1c1ccc(N2CCCOC2=O)cc1,> 1000 nM (inactive)
7,C[C@@H]1CC(=O)NN=C1c1ccc(N2CCOCC2)cc1,13 nM
8,CCN(CC)c1ccc(C(=O)Nc2ccccc2)cc1[N+](=O)[O-],> 1000 nM (inactive)
9,CC(=O)Nc1ccc(C2=NNC(=O)C[C@H]2C)cc1N,> 1000 nM (inactive)
10,CC(=O)Nc1ccc(-c2n[nH]c(=O)cc2C)cc1,> 1000 nM (inactive)
11,CCNc1ccc(C2=NNC(=O)C[C@H]2C)cc1,71 nM
12,O=C1CC(c2ccccc2)=NN1,> 1000 nM (inactive)
13,C[C@@H]1CC(=O)NN=C1c1ccc(N2CCOCC2)c(F)c1,1.58 nM
14,CC(=O)Nc1ccc(C2=NNC(=O)C[C@H]2C)cc1,4.78 nM
15,C[C@@H]1CC(=O)NN=C1c1ccc(I)cc1,7.02 nM
16,C[C@@H]1CC(=O)NN=C1c1ccc(N2CCCC2=O)cc1,133 nM (inactive)
17,CC1CC(=O)NN=C1c1ccc(F)c(F)c1 (configuration not stated),64.1 nM
18,CC(=O)Nc1ccc(C2=NNC(=O)CC2C)cc1 (configuration not stated),> 1000 nM (inactive)
19,Cc1ccc(CCC(=O)N2CCN(c3ccc(C4=NNC(=O)CC4C)cc3)CC2)cc1 (configuration not stated),> 1000 nM (inactive)
20,CCN(CC)c1ccc(C2=NNC(=O)CC2C)cc1NCCOCCOCCNC(=O)OC(C)(C)C (configuration not stated),> 1000 nM (inactive)
21,C[C@@H]1CC(=O)NN=C1c1ccc(N2CCN(C)CC2)cc1,297 nM (inactive)

row,SMILES,IC50
1,Cc1nc2ccc(C3=NNC(=O)C[C@H]3C)cc2[nH]1,> 1000 nM (inactive)
2,C[C@@H]1CC(=O)NN=C1c1ccccc1,428 nM (inactive)
3,C[C@@H]1CC(=O)NN=C1c1ccc(N2CCCCC2)cc1,3.83 nM
4,CC(=O)Nc1ccc(C2=NNC(=O)C[C@H]2C)cc1Br,21.4 nM
5,CC1CC(=O)N(c2ccccc2)N=C1c1ccc(Cl)cc1 (configuration not stated),> 1000 nM (inactive)
6,C[C@H]1CC(=O)NN=C1c1ccc(F)c(F)c1,> 1000 nM (inactive)
7,C[C@@H]1CC(=O)NN=C1c1ccc(C2=CCCCC2)cc1,2.22 nM
8,CCN(CC)c1ccc(C2=NNC(=O)CC2C)cc1NC(C)=O (configuration not stated),> 1000 nM (inactive)
9,CC1C(=O)NN=C1c1ccc([N+](=O)[O-])cc1 (configuration not stated),> 1000 nM (inactive)
10,C[C@@H]1CC(=O)NN=C1c1ccc(N)c(Br)c1,> 1000 nM (inactive)
11,CC1CC(=O)NN=C1c1cccs1 (configuration not stated),> 1000 nM (inactive)
12,CC(=O)Nc1ccc(C2=NNC(=O)C[C@H]2C)cc1C(C)=O,126 nM (inactive)
13,C[C@@H]1CC(=O)NN=C1c1ccc(-c2cncnc2)cc1,12.6 nM
14,CCN(CC)c1ccc(C2=NNC(=O)C[C@H]2C)cc1[N+](=O)[O-],> 1000 nM (inactive)
15,CCN(CC)c1ccc(C2=NNC(=O)CC2C)cc1 (configuration not stated),8.54 nM
16,C[C@@H]1CC(=O)NN=C1c1ccc(N2CCCCS2(=O)=O)cc1,478 nM (inactive)
17,CC1CC(=O)NN=C1c1ccc(N2CCOCC2)c(F)c1 (configuration not stated),2.73 nM
18,C[C@H]1CC(=O)NN=C1c1ccc(N2CCOCC2)c(F)c1,> 1000 nM (inactive)
19,C[C@@H]1CC(=O)NN=C1c1ccc(-n2cnnc2)cc1,> 1000 nM (inactive)
20,C[C@@H]1CC(=O)NN=C1c1ccc(C2CCCCC2)cc1,7.59 nM
21,CCN(CC)c1ccc(C2=NNC(=O)C[C@H]2C)cc1,3.71 nM

row,SMILES,IC50
1,CC1(C)C(=O)NN=C1c1ccc(Cl)cc1,> 1000 nM (inactive)
2,CC1CC(=O)NN=C1c1ccc(N2CCN(C(=O)Cc3ccc(Cl)cc3Cl)CC2)cc1 (configuration not stated),> 1000 nM (inactive)
3,CC(=O)Nc1ccc(C2=NNC(=O)C[C@H]2C)cc1[N+](=O)[O-],4.78 nM
4,CCN(CC)c1ccc(-c2n[nH]c(=O)cc2C)cc1,> 1000 nM (inactive)
5,CCN1N=C(c2ccc(N(CC)CC)cc2)[C@H](C)CC1=O,> 1000 nM (inactive)
6,C#Cc1cc(C2=NNC(=O)C[C@H]2C)ccc1NC(C)=O,64.6 nM
7,CCCc1ccc(C2=NNC(=O)C[C@H]2C)cc1,16.2 nM
8,C[C@@H]1CC(=O)NN=C1c1ccc([Si](C)(C)C)cc1,179 nM (inactive)
9,O=C1C[C@H]2CCc3cc(N4CCOCC4)ccc3C2=NN1 (racemic),> 1000 nM (inactive)
10,CC1(C)C(=O)NN=C1c1ccc(N)cc1,> 1000 nM (inactive)
11,C[C@@H]1CC(=O)NN=C1c1ccc(N2CCOCC2)cc1 (racemic),35.1 nM
12,C[C@@H]1CC(=O)NN=C1c1ccc(Cl)cc1,32.6 nM
13,CC(=O)N1CCN(c2ccc(C3=NNC(=O)CC3C)cc2F)CC1 (configuration not stated),> 1000 nM (inactive)
14,CC1(C)C(=O)NN=C1c1ccc(N2CCOCC2)cc1,> 1000 nM (inactive)
15,C[C@@H]1CC(=O)NN=C1c1ccc(N2CCCCC2=O)cc1,> 1000 nM (inactive)
16,C[C@@H]1CC(=O)NN=C1c1ccc(N)c([N+](=O)[O-])c1,> 1000 nM (inactive)
17,CC1(C)C(=O)NN=C1c1ccc([N+](=O)[O-])cc1,> 1000 nM (inactive)
18,CCN(CC)c1ccc(C2=NNC(=O)C2(C)C)cc1,> 1000 nM (inactive)
19,CCNc1ccc(C2=NNC(=O)C[C@H]2C)cc1[N+](=O)[O-],1.08 nM
